Measurements taken from publication PMC4993599 (Bioorganic & medicinal chemistry letters, 2016).

Key:
[1] = Lipophilicity by analytical reverse phase HPLC; format: physicochemical
TSPO = TSPO (Rattus norvegicus, UniProt P16257); experiment: C6 glioma cell lysate binding assay; settings: for binding affinity (in words): TSPO

Row | SMILES | lipophilicity (in words) [1] | binding affinity (in words) (TSPO) | also measured
1 | CCN(CC)C(=O)Cc1c(-c2ccc(OC)cc2)nn2c(C)cc(C)nc12 [Compound 8, DPA-713, reference compound] | – | – | log P7.5 ([1]; reverse phase HPLC, averaged from triple runs): 2.40
2 | CCCCN(CCCC)C(=O)Cc1c(-c2ccc(OC)cc2)nn2c(CC)cc(CC)nc12 [Compound 12] | extremely lipophilic | – | –
3 | CCCCCN(CCCCC)C(=O)Cc1c(-c2ccc(OC)cc2)nn2c(CC)cc(CC)nc12 [Compound 13] | extremely lipophilic | – | –
4 | CCCCCCN(CCCCCC)C(=O)Cc1c(-c2ccc(OC)cc2)nn2c(CC)cc(CC)nc12 [Compound 14] | extremely lipophilic | – | –
5 | CCc1cc(CC)n2nc(-c3ccc(OC)cc3)c(CC(=O)N(CC)C(C)(C)C)c2n1 [Compound 16] | – | – | decrease of affinity when substituting ethyl groups with t-butyls (TSPO; compound 16 relative to compound 10): over 300 fold
6 | CCc1cc(CC)n2nc(-c3ccc(OC)cc3)c(CC(=O)N3CCC3)c2n1 [Compound 23] | – | very poor binding affinity | –
7 | CCc1cc(CC)n2nc(-c3ccc(OC)cc3)c(CC(=O)N3CCCC3)c2n1 [Compound 24] | – | very poor binding affinity | –
8 | CCc1cc(CC)n2nc(-c3ccc(OC)cc3)c(CC(=O)N3CCCCC3)c2n1 [Compound 25] | – | very poor binding affinity | –
